Laboratory results taken from ChEMBL document CHEMBL4627278, “Discovery of 2-aminoisobutyric acid ethyl ester (AIBEE) phosphoramidate prodrugs for delivering nucleoside HCV NS5B polymerase inhibitors” (Bioorg Med Chem Lett, 2020).
≈ marks a conversion by molar mass, not a printed value.

Assays:
[1] = Prodrug conversion in human hepatocytes assessed as nucleotide triphosphate level at 100 uM incubated for 4 hrs followed by compound washout and further incubated in fresh media for 24 hrs; type: ADME, cell-based, Hepatocyte
[2] = Aqueous solubility of compound at pH 7.4; type: physicochemical; conditions: buffer
[3] = Prodrug conversion in dog liver assessed as nucleotide triphosphate level at 5 mg/kg, po after 4 hrs; type: ADME, organism-based, Canis lupus familiaris; conditions: in vivo
[4] = Prodrug conversion in dog liver assessed as nucleotide triphosphate level at 5 mg/kg, po co-dosed with 5 mg/kg sofosbuvir after 4 hrs; type: ADME, organism-based, Canis lupus familiaris; conditions: in vivo
[5] = Prodrug conversion in dog liver assessed as nucleotide triphosphate level at 5 mg/kg, po co-dosed with 5 mg/kg sofosbuvir after 24 hrs; type: ADME, organism-based, Canis lupus familiaris; conditions: in vivo
[6] = Half life in human hepatocytes; type: ADME, cell-based, Hepatocyte
[7] = Prodrug conversion in dog liver assessed as 2-((((2R,3R,4R,5R)-4-bromo-4-chloro-5-(2,4-dioxo-3,4-dihydropyrimidin-1(2H)-yl)-3-hydroxytetrahydrofuran-2-yl)methoxy)(hydroxy)phosphorylamino)-2-methylpropanoic acid level at 5 mg/kg, po after 4 hrs; type: ADME, organism-based, Canis lupus familiaris; conditions: in vivo
[8] = Prodrug conversion in dog liver assessed as 1-((2R,3R,4R,5R)-3-bromo-3-chloro-4-hydroxy-5-(hydroxymethyl)tetrahydrofuran-2-yl)pyrimidine-2,4(1H,3H)-dione level at 5 mg/kg, po after 24 hrs; type: ADME, organism-based, Canis lupus familiaris; conditions: in vivo
[9] = Prodrug conversion in dog liver assessed as (2S)-2-((((2R,3R,4R,5R)-4-bromo-4-chloro-5-(2,4-dioxo-3,4-dihydropyrimidin-1(2H)-yl)-3-hydroxytetrahydrofuran-2-yl)methoxy)(hydroxy)phosphorylamino)propanoic acid level at 5 mg/kg, po after 24 hrs; type: ADME, organism-based, Canis lupus familiaris; conditions: in vivo
[10] = Prodrug conversion in dog liver assessed as (2S)-2-((((2R,3R,4R,5R)-4-bromo-4-chloro-5-(2,4-dioxo-3,4-dihydropyrimidin-1(2H)-yl)-3-hydroxytetrahydrofuran-2-yl)methoxy)(hydroxy)phosphorylamino)propanoic acid level at 5 mg/kg, po after 4 hrs; type: ADME, organism-based, Canis lupus familiaris; conditions: in vivo
[11] = Prodrug conversion in dog liver assessed as nucleotide triphosphate level at 5 mg/kg, po measured after 24 hrs; type: ADME, organism-based, Canis lupus familiaris; conditions: in vivo
[12] = Prodrug conversion in dog liver assessed as 1-((2R,3R,4R,5R)-3-bromo-3-chloro-4-hydroxy-5-(hydroxymethyl)tetrahydrofuran-2-yl)pyrimidine-2,4(1H,3H)-dione level at 5 mg/kg, po after 4 hrs; type: ADME, organism-based, Canis lupus familiaris; conditions: in vivo
[13] = Prodrug conversion in human hepatocytes assessed as nucleotide triphosphate level at 100 uM after 4 hrs; type: ADME, cell-based, Hepatocyte
[14] = Intrinsic clearance in human hepatocytes; type: ADME, cell-based, Hepatocyte; conditions: read-out: CLH (converted)
[15] = Prodrug conversion in dog liver assessed as 2-((((2R,3R,4R,5R)-4-bromo-4-chloro-5-(2,4-dioxo-3,4-dihydropyrimidin-1(2H)-yl)-3-hydroxytetrahydrofuran-2-yl)methoxy)(hydroxy)phosphorylamino)-2-methylpropanoic acid level at 5 mg/kg, po after 24 hrs; type: ADME, organism-based, Canis lupus familiaris; conditions: in vivo
[16] = Stability in human plasma assessed as parent compound remaining after 4 hrs; type: ADME, cell-free; conditions: read-out: Stability
[17] = Stability in dog plasma assessed as parent compound remaining after 4 hrs; type: ADME, cell-free, Canis lupus familiaris; conditions: read-out: Stability
[18] = Cytotoxicity against human HuH7 cells assessed as reduction in cell viability; type: cell-based, Huh-7; conditions: read-out: TD50 (the source's name)
[19] = Lipophilicity, log D of compound; type: physicochemical; conditions: octanol/water

SMILES	Drug metabolism [1] [µM]	solubility [2] [µM]	Drug metabolism [3] [µg/g]	Drug metabolism [4] [µg/g]	Drug metabolism [5] [µg/g]	half-life [6] [min]	Drug metabolism [7] [µg/g]	Drug metabolism [8] [µg/g]	Drug metabolism [9] [µg/g]	Drug metabolism [10] [µg/g]	Drug metabolism [11] [µg/g]	Drug metabolism [12] [µg/g]	Drug metabolism [13] [µM]	CLint scaled [14] [mL/min/kg]	Drug metabolism [15] [µg/g]	remaining at 4 h [16] [%]	remaining at 4 h [17] [%]	CC50 [18] [µM]	logD [19]
CCOC(=O)C(C)(C)NP(=O)(OC[C@H]1O[C@@H](n2ccc(=O)[nH]c2=O)[C@](Cl)(Br)[C@@H]1O)Oc1ccccc1 (some centres not stated)	43	> 200	14.73	4.02	3.47	> 30	0.232	0.192	0.065	0.232	4.56	1.335	2114	685	0.065	103	111		
COc1cccc(O[P@](=O)(N[C@@H](C)C(=O)OC(C)C)OC[C@H]2O[C@@H](n3ccc(=O)[nH]c3=O)[C@](Cl)(Br)[C@@H]2O)c1	14	20 (≈ 12.8 µg/mL)				> 30							35	335					
CC(C)OC(=O)C(C)(C)NP(=O)(OC[C@H]1O[C@@H](n2ccc(=O)[nH]c2=O)[C@](Cl)(Br)[C@@H]1O)Oc1ccccc1 (some centres not stated)	40	> 200	0.713	4.2	3.43	> 30		0.04			0.244	0.252	157	192		109	104		
CC(C)OC(=O)[C@H](C)N[P@](=O)(OC[C@H]1O[C@@H](n2ccc(=O)[nH]c2=O)[C@](Cl)(Br)[C@@H]1OC(=O)[C@@H](N)C(C)C)Oc1cccc2ccccc12		4 (≈ 3.04 µg/mL)				> 30													
CC(C)OC(=O)[C@H](C)N[P@](=O)(OC[C@H]1O[C@@H](n2ccc(=O)[nH]c2=O)[C@](Cl)(Br)[C@@H]1OC(=O)[C@@H](N)C(C)C)Oc1ccccc1	24	> 200	0.828	3.1	2.89	> 30	0.359	0.029	0.006	0.359	0.409	0.341	169		0.006				
CC(C)OC(=O)[C@H](C)N[P@](=O)(OC[C@H]1O[C@@H](n2ccc(=O)[nH]c2=O)[C@](C)(F)[C@@H]1O)Oc1ccccc1 [SOFOSBUVIR]	122	> 200				120							97	71.7				> 100	3.02
CC(C)OC(=O)[C@H](C)N[P@](=O)(OC[C@H]1O[C@@H](n2ccc(=O)[nH]c2=O)[C@](Cl)(Br)[C@@H]1O)Oc1cccc2ccccc12	9	17 (≈ 11.2 µg/mL)				> 30							81	575					

More lines, main results first:

Drug metabolism [1] [µM]	solubility [2] [µM]	Drug metabolism [3] [µg/g]	Drug metabolism [4] [µg/g]	Drug metabolism [5] [µg/g]	half-life [6] [min]	Drug metabolism [7] [µg/g]	Drug metabolism [8] [µg/g]	Drug metabolism [9] [µg/g]	Drug metabolism [10] [µg/g]	Drug metabolism [11] [µg/g]	Drug metabolism [12] [µg/g]	Drug metabolism [13] [µM]	CLint scaled [14] [mL/min/kg]	Drug metabolism [15] [µg/g]	remaining at 4 h [16] [%]	remaining at 4 h [17] [%]	SMILES	CC50 [18] [µM]	logD [19]
24	> 200	0.143	1.76	1.26	> 30	0.644	0.009	< 0.005	0.644	0.036	0.501	107	202	< 0.005			CC(C)OC(=O)[C@H](C)N[P@@](=O)(OC[C@H]1O[C@@H](n2ccc(=O)[nH]c2=O)[C@](Cl)(Br)[C@@H]1O)Oc1ccccc1		
22	23 (≈ 14 µg/mL)	0.088	1.59	1.02	15	0.066	0.011	0.006	0.066	0.049	1.469	110	273	0.006	92	92	CC(C)OC(=O)[C@H](C)N[P@](=O)(OC[C@H]1O[C@@H](n2ccc(=O)[nH]c2=O)[C@](Cl)(Br)[C@@H]1O)Oc1ccccc1	62	3.51
		1.24	3.87	3.18		0.357	< 0.025	0.007	0.357	0.629	0.821			0.007	86	93	CCOC(=O)[C@H](C)NP(=O)(OC[C@H]1O[C@@H](n2ccc(=O)[nH]c2=O)[C@](Cl)(Br)[C@@H]1O)Oc1ccccc1 (some centres not stated)		
32	> 200	0.252	3.04	1.12	> 30	0.151	0.006	< 0.005	0.151	0.037	0.177	2377		< 0.005	0	54	CC(C)C(=O)OC[C@H](C)NP(=O)(OC[C@H]1O[C@@H](n2ccc(=O)[nH]c2=O)[C@](Cl)(Br)[C@@H]1O)Oc1ccccc1 (some centres not stated)		
18					> 30							90	152				CCOC(=O)[C@H](C)N[P@](=O)(OC[C@H]1O[C@@H](n2ccc(=O)[nH]c2=O)[C@](Cl)(Br)[C@@H]1O)Oc1ccccc1		
24					> 30							188	282				COCC(C)C(=O)OC[C@H](C)NP(=O)(OC[C@H]1O[C@@H](n2ccc(=O)[nH]c2=O)[C@](Cl)(Br)[C@@H]1O)Oc1ccccc1 (some centres not stated)		
31	> 200	0.329			> 30		0.038			0.188	0.187	465	242		87	84	COCC(C)OC(=O)[C@H](C)NP(=O)(OC[C@H]1O[C@@H](n2ccc(=O)[nH]c2=O)[C@](Cl)(Br)[C@@H]1O)Oc1ccccc1 (some centres not stated)		
16					> 30							120	223				COCC(=O)OC[C@H](C)NP(=O)(OC[C@H]1O[C@@H](n2ccc(=O)[nH]c2=O)[C@](Cl)(Br)[C@@H]1O)Oc1ccccc1 (some centres not stated)		
39					> 30							738	185				CCOC(=O)[C@H](C)N[P@@](=O)(OC[C@H]1O[C@@H](n2ccc(=O)[nH]c2=O)[C@](Cl)(Br)[C@@H]1O)Oc1ccccc1		
